{
  "source": "patent US20250288645A1",
  "about": "“USE OF GsMTx4 AND GsMTx4 CONJUGATES TO IMPROVE RECOVERY FROM JOINT INJURY” (priority 2023, published 2025)",
  "key": {"[1]": {"tested_on": "Piezo2", "experiment": "Bilateral ACL-injury mouse model: Piezo2 expression in CGRP+ pain nerves", "type": "in vivo", "details": "ACL-I mice, GsMTx4 post-injury, versus saline-treated ACL-I mice", "source_text": "(§1) Some of the studies reported below involved a murine model of animals which were subjected to trauma by injuring an ACL (as an exemplar of injury to any of the four knee ligaments). Without wishing to be bound by theory, it is believed that injury to the ACL changes the mechanical loading on the joint, promoting imbalanced metabolism in articular cartilage, and promoting the development of post-traumatic OA, or “PTOA.” Animals were divided into four cohorts: the first group, the controls, were not subjected to trauma, the second group underwent bilateral ACL injury, but no further treatment, the third group underwent bilateral ACL injury, and was then administered saline solution at days 3, 10 and 17 post-injury, and the fourth group underwent bilateral ACL injury, and was then administered GsMTx4 peptide at days 3, 10 and 17 post-injury. The animals were evaluated by gait analysis, a cell vulnerability assay, and a histological evaluation/immunofluorescence assay. In one aspect, the assays compared the expression of Piezo1 and Piezo2 in chondrocytes from injured joints, from uninjured controls, and from injured joints injured and then treated with GsMTx4 and from joints that were injured and then treated only with saline solution. The study also looked at calcitonin gene-related peptide (“CGRP”)-containing (“CGRP^+”) nerve endings. […]"}, "[2]": {"tested_on": "mice", "experiment": "Gait analysis after bilateral ACL injury", "type": "in vivo, mouse", "details": "weekly subcutaneous injections, after 3 weeks", "method": "This Example discusses studies in which mice were first divided into three groups: Group 1, control animals, were not injured, but were injected with GsMTx4, Group 2 mice were given a bilateral ACL injury in their hind legs, and then given weekly subcutaneous injections of saline, and (3) Group 3 mice were given a bilateral ACL injury in their hind legs, and then given weekly subcutaneous injections of GsMTx4.\nAfter 3 weeks, the gait of the animals in each group was studied for the following metrics: hind paw stride length, hind paw average speed, hind paw swing speed, and step cycle."}, "[3]": {"tested_on": "C57Bl/6 male mice", "experiment": "Massive rotator cuff tear (RCT) mouse model: humeral head cartilage histology", "type": "in vivo", "method": "(§2) A massive rotator cuff tear (RCT) model was performed by surgical ligation of the supraspinatus and infraspinatus tendons of the right shoulder of 14-week-old C57Bl/6 male and female mice through a deltoid splitting approach. Mice were anesthetized with 2% isoflurane gas mixed with oxygen. A single dose of buprenorphine SR (0.5 mg/kg) was injected subcutaneously at the nape. The right shoulder was prepped using a chemical hair removal agent, followed by betadine solution for 2 minutes and a rinse with 70% ethanol. The remaining steps were performed under sterile technique. A #11 scalpel blade was used to sharply incise the skin and subcutaneous tissues in a longitudinal incision over the palpable border of the lateral shoulder. The deltoid fascia and muscle were sharply incised in line with the skin incision with care not to dissect distally along the humerus to protect the axillary nerve. A pair of forceps were then used to grasp the proximal humerus and pull laterally to place the glenohumeral joint on gentle tension. A 25G needle was passed under the supraspinatus and infraspinatus tendons. […] Animals were monitored daily for 3 days post-operatively, and no adverse events were noted. […]\nHumeri were harvested and chondrocyte mechano-vulnerability was quantified before and after 2 mJ impact according to methods above. […]"}, "[4]": {"tested_on": "CGRP^+ pain nerves", "experiment": "Bilateral ACL-injury mouse model: knee nerve innervation and CGRP+ pain nerves", "type": "in vivo", "source_text": "Some of the studies reported below involved a murine model of animals which were subjected to trauma by injuring an ACL (as an exemplar of injury to any of the four knee ligaments). Without wishing to be bound by theory, it is believed that injury to the ACL changes the mechanical loading on the joint, promoting imbalanced metabolism in articular cartilage, and promoting the development of post-traumatic OA, or “PTOA.” Animals were divided into four cohorts: the first group, the controls, were not subjected to trauma, the second group underwent bilateral ACL injury, but no further treatment, the third group underwent bilateral ACL injury, and was then administered saline solution at days 3, 10 and 17 post-injury, and the fourth group underwent bilateral ACL injury, and was then administered GsMTx4 peptide at days 3, 10 and 17 post-injury. The animals were evaluated by gait analysis, a cell vulnerability assay, and a histological evaluation/immunofluorescence assay. In one aspect, the assays compared the expression of Piezo1 and Piezo2 in chondrocytes from injured joints, from uninjured controls, and from injured joints injured and then treated with GsMTx4 and from joints that were injured and then treated only with saline solution. The study also looked at calcitonin gene-related peptide (“CGRP”)-containing (“CGRP^+”) nerve endings. CGRP^+ nerves have been identified as principal coordinators of thermal and mechanical sensitivity in various pain models. See, e.g., Powell, et al., Nat Commun 12, 5812 (2021); doi.org/10.1038/s41467-021-26100-6."}, "[5]": {"tested_on": "Piezo1", "experiment": "Massive rotator cuff tear mouse model: Piezo1 immunohistochemistry", "type": "in vivo", "method": "as §2, with “nerve.” for “nerve. A pair of forceps were then used to grasp the proximal humerus and pull laterally to place the glenohumeral joint on gentle tension. A 25G needle was passed under the supraspinatus and infraspinatus tendons.”\nFor Piezo1 immunohistochemistry, deparaffinized and rehydrated slides were incubated in citrate buffer (10 mM sodium citrate, 0.05% Tween-20, pH 6.0) for […] at 75° C. […] Chondrocyte Piezo1 protein expression was quantified by average threshold intensity of immunofluorescence by ImageJ analysis through raw intensity averaging. […]"}, "[6]": {"tested_on": "Piezo1", "experiment": "Bilateral ACL-injury mouse model: Piezo1 labeling (immunofluorescence)", "type": "in vivo", "details": "ACL-I mice, 3 weeks post-ACL-I, versus saline-treated ACL-I mice", "source_text": "as §1"}, "[7]": {"details": "ACL-I mice, GsMTx4 post-injury, versus saline-treated ACL-I mice"}},
  "note": "“Also recorded” adds a separate entry of the source. No end group written: not given here.",
  "data": [
    {"substance": "GsMTx4 (GCLEFWWKCNPNDDKCCRPKLKCSKLFKLCNFSF-NH2; ends and bridges not checked; listed as Grammostola spatulata)", "values": [
      {"measurement": "Piezo2 expression in CGRP^+ pain nerves", "setting": "[1]", "value": "decreased Piezo2 expression in CGRP^+ pain nerves"},
      {"measurement": "gait (hind paw stride length, hind paw average speed, hind paw swing speed, step cycle; FIG. 3)", "setting": "[2]", "value": "the same or almost the same as that of mice that had not had an ACL injured"},
      {"measurement": "average humeral head cartilage thickness", "setting": "[3]; RC ligation, subcutaneous twice weekly, 14 weeks post-operatively, GsMTx4 versus saline or contralateral control joint", "value": "no difference in average humeral head cartilage thickness"},
      {"measurement": "cartilage degeneration of shoulder", "setting": "[3]; RCT, treated post-injury, versus animals not treated post-injury with GsMTx4", "value": "reduced cartilage degeneration"},
      {"measurement": "CGRP^+ pain nerves / CGRP level in injured knee", "setting": "[4]; [7]", "value": "decreased CGRP^+ pain nerves; also recorded: lower levels of CGRP present"},
      {"measurement": "nerve innervation in the knee", "setting": "[4]; [7]", "value": "decreased nerve innervation in the knee"},
      {"measurement": "pain nerves in the meniscus of the injured joints", "setting": "[4]; bilateral ACL injury, versus no treatment or saline", "value": "reduced the increase of pain nerves in the meniscus"},
      {"measurement": "humeral head chondrocyte Piezo1 protein expression versus contralateral control joint", "setting": "[5]; RC ligation, subcutaneous twice weekly, 14 weeks post-operatively, p<0.05", "value": "significantly lower humeral head chondrocyte Piezo1 protein expression"},
      {"measurement": "Piezo1 expression in cells from RCT shoulders versus animals not treated with GsMTx4", "setting": "[5]; RCT, treated post-injury with GsMTx4", "value": "reduced expressed of Piezo1"},
      {"measurement": "Piezo1-labeling in chondrocytes and nerves in subchondral bones", "setting": "[6]", "value": "reduced Piezo1-labeling in chondrocytes and nerves in subchondral bones"}
    ]}
  ]
}
